This note sets out measurements from patent US20100275276A1, “ZEBRAFISH MODEL FOR ASSESSING GASTROINTESTINAL MOTILITY” (THE RESEARCH FOUNDATION OF STATE UNIVERSITY OF NEW YORK, priority 2006, published 2010).

Where a name gives a salt, the structure may show the parent alone. Read-outs that look alike come from different tables or passages of the source.

Assay [1] relates to zebrafish larvae.
For assay [2], the system named is zebrafish larvae. Briefly: Spatiotemporal mapping of spontaneous GI motility. Format: in vivo. To be noted: 11 dpf larvae treated with 50 μM Gleevec.
Excerpt: Spontaneous GI motility occurs at regular intervals and propagates along the GI tract at 11 dpf when ICC are fully present in the GI tract.
This Example uses digital imaging and image processing techniques to quantify coordinated GI motility. […] These types of motility can be distinguished in time-lapse digital images.
This Example uses a technique, spatiotemporal mapping, that converts a series of images into a single image with dimensions of time and distance. This single image supplies data on movement, and therefore propagation contractions can be visualized and quantified.
Assay [3] relates to zebrafish larvae. Briefly: Fluorescent microsphere spectrophotometric assay of propulsive GI motility. Format: in vivo. As to conditions: for Reduction of fluorescence intensity: 11 dpf larvae, one day after loading; for Total fluorescence intensity one day after loading: 11 day old larvae, 10^−5 mg/ml, n=5. The source says: Gastrointestinal (GI) motility disorders such as constipation and dyspepsia are common, but current treatment options are largely ineffective, primarily due to a limited understanding of GI motility. The broad objective is to develop a new zebrafish-based model system for GI motility. Muscular contractions of the GI tract may be directly observed in a zebrafish larva, and GI motility has been quantified as contraction frequency. […] The specific objective of this project is to develop an assay to specifically measure propulsion of luminal contents. […] A decrease in fluorescence emission would indicate that ingested microspheres have been eliminated via propulsive motility. Fluorescence spectroscopy was used to quantify the fluorescence intensity as a function of time.
Total fluorescence emission averaged 62,630±23,780 counts per sec (n=5 samples, 5 larvae grouped per sample) immediately after ingestion in 11 day old larvae. One day later total fluorescence intensity averaged 53,277±6,333 counts per sec, a 15% decrease (n=5, P<0.05). […] Two prokinetic agents, erythromycin and 5-hydroxytryptamine (10^−5 mg/ml), were used to validate the assay. One day after loading, the total fluorescence intensity decreased after application of erythromycin (69,782±10,423, n=5, P<0.09) and with 5 HT (86,820±21,850, n=5, P<0.003).
After larvae spontaneously ingest the fluorescent micro spheres, which were suspended in the medium that the larvae are in, the larvae were washed and separated into 2 groups. The first group was sacrificed and mashed. The total fluorescence emission was measured from the ‘mashed’ larvae. The second group was sacrificed some time later. If GI motility is functional then some fraction of the micro spheres will have been excreted as a result of GI propulsive motility. The second group was sacrificed and mashed and total fluorescence emission was measured.
The difference between Group 1 and Group 2 represents the fraction of beads that has been excreted and this difference is a measure of functional GI propulsive motility.

The mark [4] stands for this setting: 14 dpf Gleevec treated larvae, Table 1 of Example 8.
[5] abbreviates: 14 dpf Gleevec treated larvae, per 300 second interval, Table 1 of Example 8.
The mark [6] stands for this setting: 14 dpf larvae, imatinib mesylate 50 μM added at 5 dpf, n = 3.
[7] abbreviates: imatinib mesylate 50 μM added at 5 dpf.

In the assay on zebrafish larvae [1] (setting [4]), `Cc1ccc(NC(=O)c2ccc(CN3CCN(C)CC3)cc2)cc1Nc1nccc(-c2cccnc2)n1` [imatinib mesylate] came in with a Distance of 399.8 ± 67.2 μm and a Velocity of 10.2 ± 3.1 μm/sec. Also, in the assay with zebrafish larvae [1] (setting [5]), the “Total # contractions, Average” value amounted to 2.3 ± 0.58 and the “Total # contractions, Total” value was determined as 7. Further, in the assay with zebrafish larvae [1] (setting [6]), the Distance is recorded as 399.8 ± 67.2 μm and the Velocity came out at 10.2 ± 3.1 μm/sec. In addition, in the assay on zebrafish larvae [1] (14 dpf larvae, imatinib mesylate 50 μM added to medium at 5 dpf, n = 3), the “Total # contractions/300 sec” value stood at 7 contractions/300 sec. Besides, the “Contractions in treated 14 dpf larvae (description)” value in the assay with zebrafish larvae [1] (Gleevec treated 14 dpf larvae) is “few contractions which were variable and did not fully propagate”. Moreover, in the assay on zebrafish larvae [1] (setting [7]), the “Character of the remaining contractions” value is “unorganized, shorter and slower”; the “Effect on number of contractions” value is “decrease in the number of contractions”. Further, in the assay on zebrafish larvae [2], the “Spontaneous motility (spatiotemporal map)” value is reported as “absent”.
As to `CC[C@H]1OC(=O)[C@H](C)[C@@H](O[C@H]2C[C@@](C)(OC)[C@@H](O)[C@H](C)O2)[C@H](C)[C@@H](O[C@@H]2O[C@H](C)C[C@H](N(C)C)[C@H]2O)[C@](C)(O)C[C@@H](C)C(=O)[C@H](C)[C@@H](O)[C@]1(C)O` [erythromycin], in the assay with zebrafish larvae [3], the “Reduction of fluorescence intensity” value is recorded as 23% and the “Total fluorescence intensity one day after loading” value is 69,782±10,423 counts per sec.
As for `NCCc1c[nH]c2ccc(O)cc12` [5-hydroxytryptamine], in the assay on zebrafish larvae [3], the “Reduction of fluorescence intensity” value is reported as 53% and the “Total fluorescence intensity one day after loading” value is given as 86,820±21,850 counts per sec.
